# Laboratory results published in the supplement of paper PMC10307832.
# Columns and labels:
# Assay in all cases: relative viability (nuclei count vs DMSO), 5 days (fraction); higher = more cells survive
# SK-LU-1 = tested on: SK-LU-1
# How it was run: (§1)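 Lung cancer cell lines in 1536-well plates were dosed by pin tool the day after seeding, either with one drug alone or with a fixed anchor-drug dose plus five library-drug doses (not always all listed) in √10 steps. After 5 days, cells were fixed and their nuclei stained in one step (final 0.05% Triton X-100, 1% formaldehyde, 1 ug/ml Hoechst), then counted on 4× images. Relative viability is the nuclei count in treated wells divided by that in vehicle wells. Values are medians of duplicate plates.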
# Calu-6 = tested on: Calu-6
# How it was run: as §1
# NCI-H1666 = tested on: NCI-H1666
# How it was run: as §1
# IA-LM = tested on: IA-LM
# How it was run: as §1
# PC-14 = tested on: PC-14
# How it was run: as §1
# EBC-1 = tested on: EBC-1
# How it was run: as §1
# NCI-H1703 = tested on: NCI-H1703
# How it was run: as §1
# NCI-H1944 = tested on: NCI-H1944
# How it was run: as §1
# A549 = tested on: A549
# How it was run: as §1
# NCI-H661 = tested on: NCI-H661
# How it was run: as §1
# NCI-H596 = tested on: NCI-H596
# How it was run: as §1
# NCI-H1299 = tested on: NCI-H1299
# How it was run: as §1
structure (smiles),measurement,setting,value
CCNC(=O)c1noc(-c2cc(C(C)C)c(O)cc2O)c1-c1ccc(CN2CCOCC2)cc1 [Luminespib] + Cc1nc(NC(=O)N2CCC[C@H]2C(N)=O)sc1-c1ccnc(C(C)(C)C(F)(F)F)c1 [Alpelisib] (partner 2 µM),relative viability,SK-LU-1; first compound 0.002 µM,1.33
same,relative viability,SK-LU-1; first compound 0.006325 µM,0.7
same,relative viability,SK-LU-1; first compound 0.02 µM,0.305
same,relative viability,SK-LU-1; first compound 0.06325 µM,0.18
same,relative viability,SK-LU-1; first compound 0.2 µM,0.161
same,relative viability,Calu-6; first compound 0.002 µM,0.975
same,relative viability,Calu-6; first compound 0.006325 µM,0.949
same,relative viability,Calu-6; first compound 0.02 µM,0.783
same,relative viability,Calu-6; first compound 0.06325 µM,0.131
same,relative viability,Calu-6; first compound 0.2 µM,0.12
same,relative viability,NCI-H1666; first compound 0.002 µM,1
same,relative viability,NCI-H1666; first compound 0.006325 µM,1.01
same,relative viability,NCI-H1666; first compound 0.02 µM,0.985
same,relative viability,NCI-H1666; first compound 0.06325 µM,1.01
same,relative viability,NCI-H1666; first compound 0.2 µM,0.795
same,relative viability,IA-LM; first compound 0.002 µM,0.752
same,relative viability,IA-LM; first compound 0.006325 µM,0.788
same,relative viability,IA-LM; first compound 0.02 µM,0.268
same,relative viability,IA-LM; first compound 0.06325 µM,0.0487
same,relative viability,IA-LM; first compound 0.2 µM,0.05
same,relative viability,PC-14; first compound 0.002 µM,0.942
same,relative viability,PC-14; first compound 0.006325 µM,0.882
same,relative viability,PC-14; first compound 0.02 µM,0.893
same,relative viability,PC-14; first compound 0.06325 µM,0.091
same,relative viability,PC-14; first compound 0.2 µM,0.0816
same,relative viability,EBC-1; first compound 0.002 µM,0.825
same,relative viability,EBC-1; first compound 0.006325 µM,0.741
same,relative viability,EBC-1; first compound 0.02 µM,0.228
same,relative viability,EBC-1; first compound 0.06325 µM,0.146
same,relative viability,EBC-1; first compound 0.2 µM,0.131
same,relative viability,NCI-H1703; first compound 0.002 µM,0.378
same,relative viability,NCI-H1703; first compound 0.006325 µM,0.367
same,relative viability,NCI-H1703; first compound 0.02 µM,0.186
same,relative viability,NCI-H1703; first compound 0.06325 µM,0.133
same,relative viability,NCI-H1703; first compound 0.2 µM,0.116
same,relative viability,NCI-H1944; first compound 0.002 µM,0.861
same,relative viability,NCI-H1944; first compound 0.006325 µM,0.826
same,relative viability,NCI-H1944; first compound 0.02 µM,0.539
same,relative viability,NCI-H1944; first compound 0.06325 µM,0.755
same,relative viability,NCI-H1944; first compound 0.2 µM,0.781
same,relative viability,A549; first compound 0.002 µM,0.804
same,relative viability,A549; first compound 0.006325 µM,0.71
same,relative viability,A549; first compound 0.02 µM,0.255
same,relative viability,A549; first compound 0.06325 µM,0.0392
same,relative viability,A549; first compound 0.2 µM,0.036
same,relative viability,NCI-H661; first compound 0.002 µM,0.628
same,relative viability,NCI-H661; first compound 0.006325 µM,0.608
same,relative viability,NCI-H661; first compound 0.02 µM,0.48
same,relative viability,NCI-H661; first compound 0.06325 µM,0.322
same,relative viability,NCI-H661; first compound 0.2 µM,0.184
same,relative viability,NCI-H596; first compound 0.002 µM,0.517
same,relative viability,NCI-H596; first compound 0.006325 µM,0.45
same,relative viability,NCI-H596; first compound 0.06325 µM,0.44
same,relative viability,NCI-H596; first compound 0.2 µM,0.464
same,relative viability,NCI-H1299; first compound 0.002 µM,1
same,relative viability,NCI-H1299; first compound 0.006325 µM,1
same,relative viability,NCI-H1299; first compound 0.02 µM,1.15
same,relative viability,NCI-H1299; first compound 0.06325 µM,0.961
same,relative viability,NCI-H1299; first compound 0.2 µM,0.483
